The values below are quoted from earlier work in patent US20240108740A1, “THERAPEUTIC COMPOSITIONS INCLUDING SPN10 AND USES THEREOF” (Stealth BioTherapeutics Inc., priority 2022, published 2024).

The test system of series [1] is several mammalian cell types. Conditions: energy-independent manner; Zhao et al. 2003; cited from earlier work.
Another series relates to cell stress recovery. Conditions: Mitchell et al., bioRxiv; cited from earlier work.

Non-standard residues stand in square brackets, D forms with d.

As to H-2′,6′-Dmt-D-Arg-Phe-Lys-NH2, the “penetration of the plasma membrane” value in series [1] is on record as “readily penetrates the plasma membrane”.

Consider “H-D-Arg-Tyr-Lys-Phe-NH2 (H-[dR]YKF-NH2; SMILES N=C(N)NCCC[C@@H](N)C(=O)N[C@@H](Cc1ccc(O)cc1)C(=O)N[C@@H](CCCCN)C(=O)N[C@@H](Cc1ccccc1)C(N)=O) [SPN4, reference compound]”, for which, in the series on cell stress recovery, the “performance compared with SS-31 (cell culture assays, structure-activity analysis)” value is “consistently outperformed SS-31”.

Take “H-F[dR]FK-NH2 [SS-20, reference compound]”: in the series with cell stress recovery, the “performance compared with SS-31 (cell culture assays, structure-activity analysis)” value is “consistently outperformed SS-31”.
